From the supplement of paper PMC13380429

How the values were obtained:
Details in all cases: 72 h
Caco-2 [1] = test: cell viability relative to DMSO; higher = less toxic
Calu-3 [2] = test: as above
HepG2 [3] = test: as above
U2OS [4] = test: as above
Vero E6 [5] = test: as above
Caco-2 [6] = test: relative viability EC50 (midpoint between 100% and the lowest measured viability); higher = less toxic
Calu-3 [7] = test: as above
HepG2 [8] = test: as above
U2OS [9] = test: as above
Vero E6 [10] = test: as above
Caco-2 [11] = test: drug sensitivity score (DSS) for viability; higher = more toxic; extreme values may be limits of the assay
Calu-3 [12] = test: as above
HepG2 [13] = test: as above
U2OS [14] = test: as above
Vero E6 [15] = test: as above

SMILES	cell viability (Caco-2 [1]; 1 nM) [%]	cell viability (Caco-2 [1]; 10 nM) [%]	cell viability (Caco-2 [1]; 100 nM) [%]	cell viability (Caco-2 [1]; 1000 nM) [%]	cell viability (Caco-2 [1]; 10000 nM) [%]	cell viability (Calu-3 [2]; 1 nM) [%]	cell viability (Calu-3 [2]; 10 nM) [%]	cell viability (Calu-3 [2]; 100 nM) [%]	cell viability (Calu-3 [2]; 1000 nM) [%]	cell viability (Calu-3 [2]; 10000 nM) [%]	cell viability (HepG2 [3]; 1 nM) [%]	cell viability (HepG2 [3]; 10 nM) [%]	cell viability (HepG2 [3]; 100 nM) [%]	cell viability (HepG2 [3]; 1000 nM) [%]	cell viability (HepG2 [3]; 10000 nM) [%]	cell viability (U2OS [4]; 1 nM) [%]	cell viability (U2OS [4]; 10 nM) [%]	cell viability (U2OS [4]; 100 nM) [%]	cell viability (U2OS [4]; 1000 nM) [%]	cell viability (U2OS [4]; 10000 nM) [%]	cell viability (Vero E6 [5]; 1 nM) [%]	cell viability (Vero E6 [5]; 10 nM) [%]	cell viability (Vero E6 [5]; 100 nM) [%]	cell viability (Vero E6 [5]; 1000 nM) [%]	cell viability (Vero E6 [5]; 10000 nM) [%]	relative viability EC50 (Caco-2 [6]) [µM]	relative viability EC50 (Calu-3 [7]) [µM]	relative viability EC50 (HepG2 [8]) [µM]	relative viability EC50 (U2OS [9]) [µM]	relative viability EC50 (Vero E6 [10]) [µM]	drug sensitivity score (Caco-2 [11])	drug sensitivity score (Calu-3 [12])	drug sensitivity score (HepG2 [13])	drug sensitivity score (U2OS [14])	drug sensitivity score (Vero E6 [15])
COc1c(C)cnc(Cn2cnc3c(Cl)nc(N)nc32)c1C [BIIB021]	91	101	92.8	65.8	39.5	102	109	105	49.4	39.4	94	100	60.8	1.5	0.6	99.4	99.4	93.3	27.7	4.4	101	104	103	51.8	36.7	0.746	0.538	0.12	0.495	0.633	7.5	9.3	23.1	14.5	9.1
O=C(O)c1ccc(-c2ccc3cc(O)c(C45CC6CC(CC(C6)C4)C5)cc3c2)cc1 [CD-1530]	90.9	98.9	94.9	84.4	88	95.9	99.6	98.8	98.5	88	108	102	97.4	124	106	98.2	96	97.7	93	86.2	93.4	103	95.8	106	103	> 10	> 10	> 10	> 10	> 10	0.4	0.1	0	0.1	0
N#Cc1cccc(C(=O)Nc2cc(-c3ccccc3)nn2-c2ccccc2)c1 [CDPPB]	93.3	100	108	95.4	102	101	95	101	97.2	100	106	103	97.8	107	104	92.8	97	97.1	93.9	91.6	98.5	96.2	98.6	99.2	103	> 10	> 10	> 10	> 10	> 10	0	0	0	0	0
CCN(CC)CCOc1ccc(Cc2ccccc2)cc1 [DPPE]	100	101	96.7	105	84.6	96	89.7	100	101	96.6	112	98.4	107	91.2	94.4	98.8	104	100	104	96.5	108	103	107	103	96	> 10	> 10	> 10	> 10	> 10	0.1	0	0	0	0
Cc1ccc(=O)n(-c2ccc(O)cc2)c1 [F351]	92.1	92.6	96.7	100	93	90.2	105	96.9	85.2	97.4	105	93.1	108	101	96.9	99.2	97.3	97.2	100	97.4	98.1	100	94.4	99.1	95.4	> 10	> 10	> 10	> 10	> 10	0	0	0	0	0
C[C@@H]1O[C@@H]1P(=O)(O)O [FOSFOMYCIN CALCIUM]	97.3	94.5	94.4	94.1	101	100	104	97.7	97.5	94.9	97.6	101	94.8	111	97.3	103	97.9	103	98.8	102	105	101	98.7	99.2	100	> 10	> 10	> 10	> 10	> 10	0	0	0	0	0
N#CN=C(NCCCCCCOc1ccc(Cl)cc1)Nc1ccncc1 [GMX1778]	104	102	3.2	3.5	3.2	104	102	7.1	4.8	3.9	109	26	19.5	16.3	8.4	102	110	0.1	-0.3	-0.5	98.3	99	101	1.7	1.2	0.0332	0.0356	0.0058	0.0363	0.326	29.3	28.8	36.6	29.7	17.6
CC=C1C(=O)C[C@H]2[C@@H]3CCC4=CC(=O)CC[C@]4(C)[C@H]3CC[C@]12C [GR-235]	95.6	96.2	99.5	90.3	83.4	110	89.9	100	99.8	114	85.2	93.1	95.4	101	91	100	98.4	102	98.2	99.1	110	108	97.8	104	111	> 10	> 10	> 10	> 10	> 10	1	0	0	0	0
O=C(Nc1ccccc1)c1cc([N+](=O)[O-])ccc1Cl [GW-9662]	98	94.1	103	90.1	93.3	93.7	93.6	101	100	96.7	94.9	100	90	102	88.3	106	91.7	101	91.6	96.8	103	106	98.2	99.9	97.7	> 10	> 10	> 10	> 10	> 10	0	0	0	0	0
Oc1ccc2ccccc2c1SSc1c(O)ccc2ccccc12 [IPA-3]	98.9	94.9	91	95.7	92.9	96.3	109	99.8	107	111	104	109	89.2	106	103	93.2	96.6	97.6	98.3	92.9	99.7	101	102	102	95.8	> 10	> 10	> 10	> 10	> 10	0	0	0	0	0
CN([C@@H](Cc1ccc(OS(=O)(=O)c2cccc3cnccc23)cc1)C(=O)N1CCN(c2ccccc2)CC1)S(=O)(=O)c1cccc2cnccc12 [KN-62]	93.4	119	112	89.6	101	105	95.8	98	93.9	91.1	123	110	105	101	95.7	101	100	99.9	95.4	92.3	104	96.6	98.9	96.3	94.8	> 10	> 10	> 10	> 10	> 10	0	0	0	0	0
NC(=O)CC[C@H](N)C(=O)O [L-glutamine]	93.2	90.8	100	96.1	101	91.5	91.7	96.9	95	91.2	92.6	102	104	91.6	100	102	102	94.4	99.1	93	100	100	95	93	92.7	> 10	> 10	> 10	> 10	> 10	0	0	0	0	0
Cc1cccc(C)c1OCC(=O)N[C@@H](Cc1ccccc1)[C@@H](O)C[C@H](Cc1ccccc1)NC(=O)[C@H](C(C)C)N1CCCNC1=O [Lopinavir]	95	101	100	101	83.7	95.4	84.9	92.7	93.9	89.2	101	87.1	103	105	95.4	99.5	95.2	103	94.1	96.5	93.3	100	100	100	104	> 10	> 10	> 10	> 10	> 10	0.3	0	0	0	0
O=C(O)CC[C@H]1CC[C@@](c2cc(F)ccc2F)(S(=O)(=O)c2ccc(Cl)cc2)CC1 [MK-0752]	96.5	106	98.2	99.2	99.5	96.3	96.3	100	101	97.8	100	96.1	98.9	92.6	108	94.9	105	96	102	97.9	96	99.7	94.5	95.5	103	> 10	> 10	> 10	> 10	> 10	0	0	0	0	0
COc1ccc(CNCc2cccc3ccccc23)cc1 [ML133]	92.5	95.6	98.5	99.9	88.3	101	101	102	104	94.6	97.8	108	101	110	112	104	94.9	100	98.9	97.5	91.2	100	94.1	99	101	> 10	> 10	> 10	> 10	> 10	0	0	0	0	0
